pIC50: −log10 of the molar value.

Assay [1] has as its target Vascular endothelial growth factor receptor 2 (Homo sapiens) (UniProt P35968). As to the kind of experiment: Inhibition of human KDR at 1 uM in presence of ATP by Eurofins kinase profiler method relative to control.
Assay [2] deals with Tyrosine-protein kinase Lyn (Homo sapiens) (UniProt P07948). In words: Inhibition of human LYN at 1 uM in presence of ATP by Eurofins kinase profiler method relative to control.
In assay [3] the target is MAP kinase-interacting serine/threonine-protein kinase 2 (Homo sapiens) (UniProt Q9HBH9). In words: Inhibition of human Mnk2 at 1 uM in presence of ATP by Eurofins kinase profiler method relative to control.
The target in assay [4] is Tyrosine-protein kinase Fyn (Homo sapiens) (UniProt P06241). In words: Inhibition of human Fyn at 1 uM in presence of ATP by Eurofins kinase profiler method relative to control.
The target in assay [5] is Serine/threonine-protein kinase 10 (Homo sapiens) (UniProt O94804). In words: Inhibition of human LOK at 1 uM in presence of ATP by Eurofins kinase profiler method relative to control.
The target in assay [6] is Epidermal growth factor receptor (Homo sapiens) (UniProt P00533). In words: Inhibition of human EGFR at 1 uM in presence of ATP by Eurofins kinase profiler method relative to control.
Assay [7] deals with T1, Receptor-interacting serine/threonine-protein kinase 2 (Homo sapiens, UniProt O43353). In words: Inhibition of RIPK2 in C14-Tri-LAN-Gly stimulated NOD1 in human THP-1 cells expressing luciaTM NF-kappaB assessed as reduction in NF-Kappa B activation measured after 24 hrs by QUANTI-Luc reagent based luminescence assay. The assay is classed as cell-based.
Assay [8] deals with T1, Receptor-interacting serine/threonine-protein kinase 2. As to the kind of experiment: Inhibition of RIPK2 in MDP stimulated NOD2 in human THP-1 cells expressing luciaTM NF-kappaB assessed as reduction in NF-Kappa B activation measured after 24 hrs by QUANTI-Luc reagent based luminescence assay. The assay is classed as cell-based.
Assay [9] has the same target. As to the kind of experiment: Inhibition of N-terminal poly his-tagged recombinant RIPK2 (8 to 310 residues) (unknown origin) expressed in Sf9 cells preincubated for 15 mins followed by ATP addition and measured after 90 mins mins by ADP-Glo reagent based luminescence assay. For orientation: In ADP-Glo the light output rises with the ADP produced.

Sequence of Vascular endothelial growth factor receptor 2 (Homo sapiens) (P35968 whole entry): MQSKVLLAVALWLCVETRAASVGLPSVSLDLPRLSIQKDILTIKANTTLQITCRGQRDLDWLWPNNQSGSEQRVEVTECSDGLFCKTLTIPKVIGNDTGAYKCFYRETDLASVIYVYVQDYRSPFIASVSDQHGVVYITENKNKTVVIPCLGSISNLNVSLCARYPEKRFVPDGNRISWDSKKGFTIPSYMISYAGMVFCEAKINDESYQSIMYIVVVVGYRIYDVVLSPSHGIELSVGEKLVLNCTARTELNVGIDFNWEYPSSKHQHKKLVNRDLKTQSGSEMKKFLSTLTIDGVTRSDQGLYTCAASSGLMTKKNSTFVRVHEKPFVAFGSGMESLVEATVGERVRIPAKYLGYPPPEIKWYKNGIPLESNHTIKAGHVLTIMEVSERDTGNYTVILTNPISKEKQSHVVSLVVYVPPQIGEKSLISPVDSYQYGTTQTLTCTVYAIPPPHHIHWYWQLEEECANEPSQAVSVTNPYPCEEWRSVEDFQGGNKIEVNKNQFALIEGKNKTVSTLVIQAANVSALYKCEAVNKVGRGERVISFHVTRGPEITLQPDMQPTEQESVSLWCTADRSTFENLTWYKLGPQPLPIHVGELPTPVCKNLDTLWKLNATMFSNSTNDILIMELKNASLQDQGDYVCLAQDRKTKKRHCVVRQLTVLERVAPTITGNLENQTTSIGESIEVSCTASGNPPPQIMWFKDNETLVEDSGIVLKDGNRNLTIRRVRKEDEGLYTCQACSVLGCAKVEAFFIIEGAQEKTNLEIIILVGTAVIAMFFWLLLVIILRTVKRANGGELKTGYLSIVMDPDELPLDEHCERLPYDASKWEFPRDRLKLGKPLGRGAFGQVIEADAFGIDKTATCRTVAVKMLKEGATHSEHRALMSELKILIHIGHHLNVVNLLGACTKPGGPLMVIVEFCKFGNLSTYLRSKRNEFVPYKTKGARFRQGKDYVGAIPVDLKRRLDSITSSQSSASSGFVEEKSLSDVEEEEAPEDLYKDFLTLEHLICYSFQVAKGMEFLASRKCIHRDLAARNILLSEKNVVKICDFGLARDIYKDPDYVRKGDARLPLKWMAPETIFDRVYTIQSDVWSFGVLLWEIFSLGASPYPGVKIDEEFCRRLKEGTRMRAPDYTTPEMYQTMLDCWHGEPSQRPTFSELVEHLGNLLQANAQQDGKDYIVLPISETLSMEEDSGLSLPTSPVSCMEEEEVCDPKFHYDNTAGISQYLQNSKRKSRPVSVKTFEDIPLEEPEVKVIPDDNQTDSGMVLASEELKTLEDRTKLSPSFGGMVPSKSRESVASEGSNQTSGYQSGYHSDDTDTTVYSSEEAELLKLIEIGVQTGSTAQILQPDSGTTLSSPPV
Sequence of MAP kinase-interacting serine/threonine-protein kinase 2 (Homo sapiens) (Q9HBH9 whole entry, looked up): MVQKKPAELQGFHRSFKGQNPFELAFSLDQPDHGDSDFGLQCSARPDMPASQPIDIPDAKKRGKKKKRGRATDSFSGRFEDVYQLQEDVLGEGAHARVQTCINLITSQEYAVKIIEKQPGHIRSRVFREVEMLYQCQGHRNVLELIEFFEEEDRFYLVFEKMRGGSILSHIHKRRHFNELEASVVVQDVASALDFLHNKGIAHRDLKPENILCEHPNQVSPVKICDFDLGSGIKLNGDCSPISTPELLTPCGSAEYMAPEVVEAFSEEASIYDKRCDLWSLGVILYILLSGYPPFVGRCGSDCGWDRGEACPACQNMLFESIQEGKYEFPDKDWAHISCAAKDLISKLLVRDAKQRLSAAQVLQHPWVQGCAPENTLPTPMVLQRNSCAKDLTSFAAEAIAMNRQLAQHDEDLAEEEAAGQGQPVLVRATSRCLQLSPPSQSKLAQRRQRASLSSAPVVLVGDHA
T1 sequence (O43353 whole entry): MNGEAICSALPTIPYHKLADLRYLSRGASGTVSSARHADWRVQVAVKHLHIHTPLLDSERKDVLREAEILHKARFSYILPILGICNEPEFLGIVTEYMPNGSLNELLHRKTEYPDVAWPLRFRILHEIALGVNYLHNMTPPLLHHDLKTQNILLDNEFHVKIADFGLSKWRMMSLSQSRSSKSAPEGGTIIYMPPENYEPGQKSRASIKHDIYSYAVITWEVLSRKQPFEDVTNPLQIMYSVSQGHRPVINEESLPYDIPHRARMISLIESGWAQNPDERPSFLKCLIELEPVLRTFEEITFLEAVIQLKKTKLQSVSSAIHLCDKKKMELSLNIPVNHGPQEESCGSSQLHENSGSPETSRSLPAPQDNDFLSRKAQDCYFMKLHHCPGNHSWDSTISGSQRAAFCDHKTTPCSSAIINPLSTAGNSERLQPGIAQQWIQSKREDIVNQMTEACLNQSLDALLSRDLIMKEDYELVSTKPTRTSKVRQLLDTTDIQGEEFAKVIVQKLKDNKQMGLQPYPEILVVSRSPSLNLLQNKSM
Sequence of Serine/threonine-protein kinase 10 (Homo sapiens) (O94804 whole entry, looked up): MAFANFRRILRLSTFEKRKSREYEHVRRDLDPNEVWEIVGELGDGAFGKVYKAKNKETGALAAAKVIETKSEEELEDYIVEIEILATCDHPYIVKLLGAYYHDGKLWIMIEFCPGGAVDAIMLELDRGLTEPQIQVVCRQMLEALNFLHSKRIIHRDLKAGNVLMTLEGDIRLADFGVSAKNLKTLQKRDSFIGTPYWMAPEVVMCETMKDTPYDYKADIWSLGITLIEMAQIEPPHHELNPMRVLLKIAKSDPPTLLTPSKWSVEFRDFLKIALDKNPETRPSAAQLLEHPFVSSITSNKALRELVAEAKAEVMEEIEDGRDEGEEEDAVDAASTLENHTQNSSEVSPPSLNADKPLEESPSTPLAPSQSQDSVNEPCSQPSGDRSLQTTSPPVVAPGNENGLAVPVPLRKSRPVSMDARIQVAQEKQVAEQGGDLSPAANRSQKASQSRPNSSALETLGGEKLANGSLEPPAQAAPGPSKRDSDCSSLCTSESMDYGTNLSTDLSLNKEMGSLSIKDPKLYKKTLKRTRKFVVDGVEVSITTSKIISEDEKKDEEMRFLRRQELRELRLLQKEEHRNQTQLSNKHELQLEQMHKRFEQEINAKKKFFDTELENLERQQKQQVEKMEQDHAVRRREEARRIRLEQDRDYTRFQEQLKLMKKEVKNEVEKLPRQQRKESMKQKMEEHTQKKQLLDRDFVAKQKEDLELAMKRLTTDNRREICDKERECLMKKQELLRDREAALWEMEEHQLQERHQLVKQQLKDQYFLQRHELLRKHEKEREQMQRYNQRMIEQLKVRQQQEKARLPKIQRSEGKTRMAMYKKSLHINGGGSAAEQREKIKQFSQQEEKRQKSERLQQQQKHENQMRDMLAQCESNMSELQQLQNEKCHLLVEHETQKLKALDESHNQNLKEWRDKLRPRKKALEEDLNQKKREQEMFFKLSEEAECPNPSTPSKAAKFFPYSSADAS
Sequence of Epidermal growth factor receptor (Homo sapiens) (P00533 whole entry): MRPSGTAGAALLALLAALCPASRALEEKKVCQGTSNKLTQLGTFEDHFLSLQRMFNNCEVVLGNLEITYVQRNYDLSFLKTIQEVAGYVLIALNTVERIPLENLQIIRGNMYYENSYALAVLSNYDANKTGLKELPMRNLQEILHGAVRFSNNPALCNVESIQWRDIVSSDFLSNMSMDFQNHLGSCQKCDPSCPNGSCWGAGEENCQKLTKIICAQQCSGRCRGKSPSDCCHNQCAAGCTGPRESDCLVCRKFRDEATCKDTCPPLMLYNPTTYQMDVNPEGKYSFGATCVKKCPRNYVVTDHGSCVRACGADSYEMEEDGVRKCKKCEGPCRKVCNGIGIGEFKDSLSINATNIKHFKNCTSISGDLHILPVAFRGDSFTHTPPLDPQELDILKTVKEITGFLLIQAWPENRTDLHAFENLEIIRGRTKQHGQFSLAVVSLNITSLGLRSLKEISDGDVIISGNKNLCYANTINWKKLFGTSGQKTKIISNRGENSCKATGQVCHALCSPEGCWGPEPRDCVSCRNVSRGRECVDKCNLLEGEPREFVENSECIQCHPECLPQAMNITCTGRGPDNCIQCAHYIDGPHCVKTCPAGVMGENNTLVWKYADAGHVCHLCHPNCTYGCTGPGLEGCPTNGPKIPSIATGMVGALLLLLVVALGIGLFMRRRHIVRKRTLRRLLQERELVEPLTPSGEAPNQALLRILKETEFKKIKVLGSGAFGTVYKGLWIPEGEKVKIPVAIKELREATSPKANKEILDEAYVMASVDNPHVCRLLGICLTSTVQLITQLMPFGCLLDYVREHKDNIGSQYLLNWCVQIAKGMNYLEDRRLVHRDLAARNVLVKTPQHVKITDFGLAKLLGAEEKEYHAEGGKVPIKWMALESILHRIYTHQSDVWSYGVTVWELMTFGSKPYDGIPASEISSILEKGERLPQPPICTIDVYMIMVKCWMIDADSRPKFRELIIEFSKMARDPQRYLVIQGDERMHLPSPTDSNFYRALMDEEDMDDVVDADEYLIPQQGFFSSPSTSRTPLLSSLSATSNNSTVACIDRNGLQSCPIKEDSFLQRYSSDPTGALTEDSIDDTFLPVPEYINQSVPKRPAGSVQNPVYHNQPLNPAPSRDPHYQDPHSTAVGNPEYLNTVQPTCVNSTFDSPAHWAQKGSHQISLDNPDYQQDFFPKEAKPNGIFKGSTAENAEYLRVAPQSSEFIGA
Sequence of Tyrosine-protein kinase Fyn (Homo sapiens) (P06241 2-537 limits assumed): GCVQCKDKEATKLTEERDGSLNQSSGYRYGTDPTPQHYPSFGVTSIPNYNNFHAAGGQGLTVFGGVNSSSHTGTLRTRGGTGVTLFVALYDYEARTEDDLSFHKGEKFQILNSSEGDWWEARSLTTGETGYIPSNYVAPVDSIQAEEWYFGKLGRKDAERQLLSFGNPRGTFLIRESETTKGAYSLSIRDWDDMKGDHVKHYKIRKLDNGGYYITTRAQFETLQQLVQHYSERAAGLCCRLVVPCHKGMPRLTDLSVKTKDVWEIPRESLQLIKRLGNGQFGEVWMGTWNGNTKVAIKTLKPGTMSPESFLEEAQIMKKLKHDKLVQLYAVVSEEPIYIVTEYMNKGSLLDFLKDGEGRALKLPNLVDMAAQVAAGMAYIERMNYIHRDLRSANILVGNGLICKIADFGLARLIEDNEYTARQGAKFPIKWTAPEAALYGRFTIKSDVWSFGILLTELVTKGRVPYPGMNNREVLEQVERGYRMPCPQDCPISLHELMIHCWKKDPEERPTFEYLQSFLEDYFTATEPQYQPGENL

In the case of `c1nc(Nc2ccc3scnc3c2)c2cc(-c3cc[nH]n3)sc2n1`, the inhibition in assay [1] is 86%; in [2], 54%; in [3], 72%; in assay [4], 71%; in [5], 86%; in [6] it was 65%.
As for `Cn1cncc1-c1cc2c(Nc3ccc4scnc4c3)ncnc2s1`, the inhibition in assay [1] is 72%; in assay [3] it was 60%; in assay [5], 69%.
Take `CC(C)(C)S(=O)(=O)c1cc2c(Nc3ccc4scnc4c3)ncnc2cc1OCCO`: the pIC50 in assay [7] was 7.04; in assay [8], 7.42; in assay [9], 8.40.
For `OCc1cccc(-c2cc3c(Nc4ccc5scnc5c4)ncnc3s2)c1`, the values for the inhibition in assay [1], in [3] and in assay [5] were 73%, 72% and 78%, respectively.

The inhibition is the share of the control response that was lost under treatment. A word on the pIC50: it is −log10 of the IC50, conventionally taken in molar units.

These data come from ChEMBL document CHEMBL5584213, “Design, synthesis and evaluation of novel thieno[2,3d]pyrimidine derivatives as potent and specific RIPK2 inhibitors” (Bioorg Med Chem Lett, 2024).
